From ChEMBL document CHEMBL1134109, “Biological evaluation of hepatitis C virus helicase inhibitors” (Bioorg Med Chem Lett, 2001)

Target: NS3 (Hepatitis C virus) (UniProt A3EZJ3)
Assay: Inhibitory activity against hepatitis C virus helicase at 25 ug/mL
Settings: Hepacivirus hominis

Chain of NS3 (Hepatitis C virus) (A3EZJ3 as listed by the source): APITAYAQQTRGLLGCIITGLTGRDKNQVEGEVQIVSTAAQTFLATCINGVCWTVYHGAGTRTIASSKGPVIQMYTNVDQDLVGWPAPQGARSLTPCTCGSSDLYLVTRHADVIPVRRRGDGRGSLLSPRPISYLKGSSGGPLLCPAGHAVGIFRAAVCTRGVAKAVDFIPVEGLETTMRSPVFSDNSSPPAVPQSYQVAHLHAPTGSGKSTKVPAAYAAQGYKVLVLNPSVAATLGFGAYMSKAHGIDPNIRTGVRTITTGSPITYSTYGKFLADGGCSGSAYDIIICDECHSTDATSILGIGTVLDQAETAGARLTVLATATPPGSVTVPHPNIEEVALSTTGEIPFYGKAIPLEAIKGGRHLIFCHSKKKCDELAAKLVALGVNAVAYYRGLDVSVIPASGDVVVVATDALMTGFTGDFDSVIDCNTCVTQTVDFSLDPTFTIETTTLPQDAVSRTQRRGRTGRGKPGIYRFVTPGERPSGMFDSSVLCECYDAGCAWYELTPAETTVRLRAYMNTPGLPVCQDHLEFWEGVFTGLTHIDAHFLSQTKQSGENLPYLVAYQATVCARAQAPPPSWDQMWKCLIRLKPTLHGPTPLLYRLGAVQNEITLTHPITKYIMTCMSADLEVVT

SMILES	inhibition
Cc1ccc2nc(-c3ccc(NC(=O)CCC(=O)Nc4ccc(-c5nc6ccc(C)cc6s5)cc4)cc3)sc2c1	14%
O=C(NCCCCCCNC(=O)Nc1ccc(-c2nc3ccccc3[nH]2)cc1)Nc1ccc(-c2nc3ccccc3[nH]2)cc1	28%
O=C(CCCCCCC(=O)Nc1nc2ccccc2[nH]1)Nc1nc2ccccc2[nH]1	6%
O=C(CCCCC(=O)Nc1nc2ccccc2[nH]1)Nc1nc2ccccc2[nH]1	6%
O=C(Nc1ccc(-c2nc3ccccc3[nH]2)cc1)c1ccc(C(=O)Nc2ccc(-c3nc4ccccc4[nH]3)cc2)cc1	75%
O=C(NCCCCNC(=O)Nc1ccc(-c2nc3ccccc3[nH]2)cc1)Nc1ccc(-c2nc3ccccc3[nH]2)cc1	20%
O=C(/C=C/C(=O)Nc1ccc(-c2nc3ccccc3[nH]2)cc1)Nc1ccc(-c2nc3ccccc3[nH]2)cc1	75%
O=C(CCCCCCCC(=O)Nc1nc2ccccc2[nH]1)Nc1nc2ccccc2[nH]1	6%
O=C(CCCCC(=O)Nc1nccs1)Nc1nccs1	10%
O=C(CCCCC(=O)Nc1ccc(-c2nc3ccccc3[nH]2)cc1)Nc1ccc(-c2nc3ccccc3[nH]2)cc1	75%
O=C(CCCCCCC(=O)Nc1ccc(-c2nc3ccccc3[nH]2)cc1)Nc1ccc(-c2nc3ccccc3[nH]2)cc1	75%
O=C(CCC(=O)Nc1nc2ccccc2[nH]1)Nc1nc2ccccc2[nH]1	6%
